Results: patent publication US20250325467A1, “COMPOSITIONS FOR PREVENTING OR TREATING SKIN AGING” (ESTETRA SRL, priority 2021, published 2025)
Entries after “also recorded” stand apart in the source; their conditions may differ.

System: Normal Human Epidermal Keratinocytes (NHEKs)
Assay: Colonization of a standard acellular area (IBIDI chamber gap closure) by keratinocytes
Format: cell-based
Conditions: vs ethanol control, 6 h and 24 h; for NHEK Proliferation & Migration (colonization of the acellular area): absence of MMC; for NHEK Migration (+MMC) (colonization of the acellular area): presence of MMC
Method: The study consists in an in vitro assay aiming to evaluate the properties of E4 and E2 at 4 concentrations each on keratinocytes and fibroblasts. In this assay, the measurement of the colonization of a standard acellular surface generated from a confluent monolayer of cells using a dedicated culture device (IBIDI chamber) is performed. The assay is performed in absence and in presence of a proliferation inhibitor to focus on cell proliferation and migration or on migration only, respectively.
The study was performed using cultures of Normal Human foreskin-derived Epidermal Keratinocytes (NHEKs, Lonza). The cells were grown in serum free Epilife medium (ThermoFisher Scientific) supplemented with Human Keratinocyte Growth Supplement (HKGS, ThermoFisher Scientific) and antibiotics. The cells were maintained in a humidified incubator at 37° C. with a 5% CO2 atmosphere.
Cells were plated in 2-well silicone inserts with a defined cell free gap (IBIDI chambers; IBIDI GmbH, 80209) that was previously inserted on 12-well culture plates. This culture device allows to create a standardized 500 μm±100 μm cell free gap for monitoring cell colonization. 24 h after seeding, when the culture reached high confluency, cells in the insert were treated, or not, with mitomycin C (MMC) at 10 μg/ml during 2 h. After these 2 hours, the insert was removed, and cells were treated with E2 or E4 in presence or not of MMC for additional 2 h. Then, if appropriate, the culture medium was removed and cells were treated with E2 or E4 for 22 h, in absence of MMC.
For the assay, keratinocytes were plated in Epilife medium without HKGS and all the treatments were performed in this medium. Fibroblasts were plated in DMEM medium containing only 2,5% of FBS and the treatments were performed in absence of FBS.
E2 and E4 were applied at 4 concentrations each (10^−7M, 10^−8M, 10^−9M, 10^−10M). In parallel, cells were treated with a positive control (HKGS 1% for human keratinocytes and PDGF-BB at 10 ng/ml for human fibroblasts).
To monitor cell colonization and to evaluate the gap closure rate, pictures of the gap were taken after different times: at time 0 h, corresponding to the beginning of the treatment with E2 or E4 and to the removal of the culture insert, at time 6 h and at time 24 h (corresponding to the end of the treatments with E2 or E4). Pictures were taken with a microscope Zeiss (Axiover 25-10× objective) and with a camera Invenio2EIII (DeltaPix—Lux-Optic). The colonized areas were quantified from the pictures by the use of the WimAsis platform—WimScratch software. For each insert, 3 pictures were taken at each time. As each condition was performed in triplicates, it means a total of 9 pictures per condition and per time point of acquisition

Compound: C[C@]12CC[C@@H]3c4ccc(O)cc4CC[C@H]3[C@@H]1[C@@H](O)[C@@H](O)[C@@H]2O [E4, 1,3,5 (10)-estratrien-3,15alpha,16alpha,17beta-tetrol]
- NHEK Proliferation & Migration (colonization of the acellular area) (10^−7M): significantly increased the colonization of the acellular area; also recorded: significantly increases the surface colonized
- NHEK Migration (+MMC) (colonization of the acellular area) (10^−7M): significantly increased the colonization of the acellular area; also recorded: significantly increases the surface colonized
- NHEK Proliferation & Migration (colonization of the acellular area) (10^−10M): significantly increased the colonization of the acellular area; also recorded: significantly increases the surface colonized
- NHEK Migration (+MMC) (colonization of the acellular area) (10^−10M): significantly increased the colonization of the acellular area; also recorded: significantly increases the surface colonized
